Source: the supplement of paper PMC10307832

Experiments:
Test in all cases: relative viability (nuclei count vs DMSO), 5 days (fraction); higher = more cells survive
PC-3 [JPC-3] = test system: PC-3 [JPC-3]
In short: (§1)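 Dosing by pin tool came one day after lung cancer cell lines were seeded in 1536-well plates, using either one drug or a fixed anchor-drug dose plus five library-drug doses (not always all listed) in √10 steps. After 5 days, nuclei were counted on 4× images. Relative viability is treated-well nuclei count divided by vehicle-well nuclei count, and values are medians of duplicate plates.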

PC-14 = test system: PC-14
In short: as §1

NCI-H1666 = test system: NCI-H1666
In short: as §1

NCI-H460 = test system: NCI-H460
In short: as §1

NCI-H2347 = test system: NCI-H2347
In short: as §1

SW 1573 = test system: SW 1573
In short: as §1

NCI-H2126 = test system: NCI-H2126
In short: as §1

NCI-H1975 = test system: NCI-H1975
In short: as §1

NCI-H647 = test system: NCI-H647
In short: as §1

LCLC-97TM1 = test system: LCLC-97TM1
In short: as §1

SK-LU-1 = test system: SK-LU-1
In short: as §1

NCI-H2170 = test system: NCI-H2170
In short: as §1

NCI-H1793 = test system: NCI-H1793
In short: as §1

NCI-H2009 = test system: NCI-H2009
In short: as §1

EMC-BAC-2 = test system: EMC-BAC-2
In short: as §1

ABC-1 = test system: ABC-1
In short: as §1

NCI-H1755 = test system: NCI-H1755
In short: as §1

NCI-H1355 = test system: NCI-H1355
In short: as §1

NCI-H1993 = test system: NCI-H1993
In short: as §1

NCI-H520 = test system: NCI-H520
In short: as §1

NCI-H727 = test system: NCI-H727
In short: as §1

NCI-H441 = test system: NCI-H441
In short: as §1

NCI-H1944 = test system: NCI-H1944
In short: as §1

O=c1[nH]c2ccccc2n1C1CCN(CCCC(c2ccc(F)cc2)c2ccc(F)cc2)CC1 [Pimozide] + Cc1cc(Nc2cc(N3CCN(C)CC3)nc(Sc3ccc(NC(=O)C4CC4)cc3)n2)n[nH]1 [Tozasertib] (partner 0.1 µM)
relative viability (PC-3 [JPC-3]; first compound 0.08 µM): 0.557
relative viability (PC-3 [JPC-3]; first compound 0.253 µM): 0.875
relative viability (PC-3 [JPC-3]; first compound 0.8 µM): 0.754
relative viability (PC-3 [JPC-3]; first compound 2.53 µM): 0.771
relative viability (PC-3 [JPC-3]; first compound 8 µM): 0.788
relative viability (PC-14; first compound 0.253 µM): 0.539
relative viability (PC-14; first compound 0.8 µM): 0.481
relative viability (PC-14; first compound 2.53 µM): 0.519
relative viability (PC-14; first compound 8 µM): 0.552
relative viability (NCI-H1666; first compound 0.08 µM): 0.628
relative viability (NCI-H1666; first compound 0.253 µM): 0.571
relative viability (NCI-H1666; first compound 0.8 µM): 0.648
relative viability (NCI-H1666; first compound 2.53 µM): 0.559
relative viability (NCI-H1666; first compound 8 µM): 0.476
relative viability (NCI-H460; first compound 0.08 µM): 0.407
relative viability (NCI-H460; first compound 0.253 µM): 0.314
relative viability (NCI-H460; first compound 0.8 µM): 0.446
relative viability (NCI-H460; first compound 2.53 µM): 0.0946
relative viability (NCI-H460; first compound 8 µM): 0.436
relative viability (NCI-H2347; first compound 0.253 µM): 0.582
relative viability (NCI-H2347; first compound 0.8 µM): 0.531
relative viability (NCI-H2347; first compound 2.53 µM): 0.563
relative viability (NCI-H2347; first compound 8 µM): 0.578
relative viability (SW 1573; first compound 0.08 µM): 0.132
relative viability (SW 1573; first compound 0.253 µM): 0.273
relative viability (SW 1573; first compound 0.8 µM): 0.133
relative viability (SW 1573; first compound 2.53 µM): 0.194
relative viability (SW 1573; first compound 8 µM): 0.174
relative viability (NCI-H2126; first compound 0.08 µM): 0.861
relative viability (NCI-H2126; first compound 0.253 µM): 0.787
relative viability (NCI-H2126; first compound 0.8 µM): 0.756
relative viability (NCI-H2126; first compound 2.53 µM): 0.817
relative viability (NCI-H2126; first compound 8 µM): 0.772
relative viability (NCI-H1975; first compound 0.08 µM): 0.766
relative viability (NCI-H1975; first compound 0.253 µM): 0.67
relative viability (NCI-H1975; first compound 0.8 µM): 0.717
relative viability (NCI-H1975; first compound 2.53 µM): 0.618
relative viability (NCI-H1975; first compound 8 µM): 0.714
relative viability (NCI-H647; first compound 0.08 µM): 0.24
relative viability (NCI-H647; first compound 0.253 µM): 0.327
relative viability (NCI-H647; first compound 0.8 µM): 0.264
relative viability (NCI-H647; first compound 2.53 µM): 0.221
relative viability (NCI-H647; first compound 8 µM): 0.214
relative viability (LCLC-97TM1; first compound 0.08 µM): 0.265
relative viability (LCLC-97TM1; first compound 0.253 µM): 0.212
relative viability (LCLC-97TM1; first compound 0.8 µM): 0.225
relative viability (LCLC-97TM1; first compound 2.53 µM): 0.173
relative viability (LCLC-97TM1; first compound 8 µM): 0.193
relative viability (SK-LU-1; first compound 0.08 µM): 0.326
relative viability (SK-LU-1; first compound 0.253 µM): 0.323
relative viability (SK-LU-1; first compound 0.8 µM): 0.328
relative viability (SK-LU-1; first compound 2.53 µM): 0.29
relative viability (SK-LU-1; first compound 8 µM): 0.299
relative viability (NCI-H2170; first compound 0.08 µM): 0.752
relative viability (NCI-H2170; first compound 0.253 µM): 0.734
relative viability (NCI-H2170; first compound 0.8 µM): 0.651
relative viability (NCI-H2170; first compound 2.53 µM): 0.653
relative viability (NCI-H2170; first compound 8 µM): 0.55
relative viability (NCI-H1793; first compound 0.253 µM): 0.341
relative viability (NCI-H1793; first compound 0.8 µM): 0.439
relative viability (NCI-H1793; first compound 2.53 µM): 0.244
relative viability (NCI-H1793; first compound 8 µM): 0.278
relative viability (NCI-H2009; first compound 0.08 µM): 0.696
relative viability (NCI-H2009; first compound 0.253 µM): 0.754
relative viability (NCI-H2009; first compound 0.8 µM): 0.683
relative viability (NCI-H2009; first compound 2.53 µM): 0.58
relative viability (NCI-H2009; first compound 8 µM): 0.577
relative viability (EMC-BAC-2; first compound 0.08 µM): 0.292
relative viability (EMC-BAC-2; first compound 0.253 µM): 0.284
relative viability (EMC-BAC-2; first compound 0.8 µM): 0.272
relative viability (EMC-BAC-2; first compound 2.53 µM): 0.225
relative viability (EMC-BAC-2; first compound 8 µM): 0.297
relative viability (ABC-1; first compound 0.08 µM): 0.213
relative viability (ABC-1; first compound 0.253 µM): 0.214
relative viability (ABC-1; first compound 0.8 µM): 0.184
relative viability (ABC-1; first compound 2.53 µM): 0.178
relative viability (ABC-1; first compound 8 µM): 0.203
relative viability (NCI-H1755; first compound 0.08 µM): 0.562
relative viability (NCI-H1755; first compound 0.253 µM): 0.58
relative viability (NCI-H1755; first compound 0.8 µM): 0.591
relative viability (NCI-H1755; first compound 2.53 µM): 0.491
relative viability (NCI-H1755; first compound 8 µM): 0.57
relative viability (NCI-H1355; first compound 0.08 µM): 0.569
relative viability (NCI-H1355; first compound 0.253 µM): 0.534
relative viability (NCI-H1355; first compound 0.8 µM): 0.462
relative viability (NCI-H1355; first compound 2.53 µM): 0.376
relative viability (NCI-H1355; first compound 8 µM): 0.414
relative viability (NCI-H1993; first compound 0.08 µM): 0.555
relative viability (NCI-H1993; first compound 0.253 µM): 0.567
relative viability (NCI-H1993; first compound 0.8 µM): 0.612
relative viability (NCI-H1993; first compound 2.53 µM): 0.568
relative viability (NCI-H1993; first compound 8 µM): 0.58
relative viability (NCI-H520; first compound 0.08 µM): 0.503
relative viability (NCI-H520; first compound 0.253 µM): 0.422
relative viability (NCI-H520; first compound 0.8 µM): 0.42
relative viability (NCI-H520; first compound 2.53 µM): 0.435
relative viability (NCI-H520; first compound 8 µM): 0.366
relative viability (NCI-H727; first compound 0.08 µM): 0.734
relative viability (NCI-H727; first compound 0.253 µM): 0.694
relative viability (NCI-H727; first compound 0.8 µM): 0.509
relative viability (NCI-H727; first compound 2.53 µM): 0.65
relative viability (NCI-H727; first compound 8 µM): 0.496
relative viability (NCI-H441; first compound 0.08 µM): 0.655
relative viability (NCI-H441; first compound 0.253 µM): 0.614
relative viability (NCI-H441; first compound 0.8 µM): 0.569
relative viability (NCI-H441; first compound 2.53 µM): 0.546
relative viability (NCI-H441; first compound 8 µM): 0.618
relative viability (NCI-H1944; first compound 0.08 µM): 0.251
relative viability (NCI-H1944; first compound 0.253 µM): 0.241
relative viability (NCI-H1944; first compound 0.8 µM): 0.242
relative viability (NCI-H1944; first compound 2.53 µM): 0.217
relative viability (NCI-H1944; first compound 8 µM): 0.23
